Data from ChEMBL document CHEMBL5385977, “Small molecules modulating RNA splicing: a review of targets and future perspectives” (RSC Med Chem, 2024).
Blank lines part the entries; values can stand above or below the molecule they belong to.

What was measured:
[1] = target: Vascular endothelial growth factor receptor 2 (Homo sapiens, UniProt P35968); assay: Inhibition of human VEGFR2 (unknown origin) incubated for 1 hrs in presence of ATP by ELISA assay
[2] = Inhibition of N-terminal His-tagged U2AF35-UHM (unknown origin) expressed in Escherichia coli Rosetta cells (DE3) incubated for 1 hr by HTRF method; parameters: species or system Homo sapiens
Splicing factor 45 = target: T1, Splicing factor 45 (Homo sapiens, UniProt Q96I25); assay: Inhibition of His-tagged SPF45-UHM (unknown origin) (301 to 401 residues) expressed in Escherichia coli BL21 (DE3) cells by using biotinylated-RKSRWDETP as substrate preincubated for 30 mins followed by substrate addition and measured after 1 hr by AlphaScreen assay
T1 sequence (Q96I25 whole entry): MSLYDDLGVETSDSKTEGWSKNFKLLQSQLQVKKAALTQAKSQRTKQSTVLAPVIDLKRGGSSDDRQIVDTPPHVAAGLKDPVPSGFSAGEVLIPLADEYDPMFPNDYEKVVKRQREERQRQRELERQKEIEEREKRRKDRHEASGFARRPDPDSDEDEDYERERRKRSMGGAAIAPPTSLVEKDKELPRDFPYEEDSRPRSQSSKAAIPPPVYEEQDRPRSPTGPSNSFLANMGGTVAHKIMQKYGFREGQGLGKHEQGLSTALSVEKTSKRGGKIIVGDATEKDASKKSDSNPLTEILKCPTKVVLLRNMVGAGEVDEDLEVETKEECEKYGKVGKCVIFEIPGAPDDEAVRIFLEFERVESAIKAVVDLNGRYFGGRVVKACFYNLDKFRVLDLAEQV

[3] = target: Programmed cell death protein 1/Programmed cell death 1 ligand 1 (Homo sapiens, UniProt Q15116+Q9NZQ7); assay: Inhibition of PD-1/PD-L1 interaction (unknown origin) incubated for 24 hrs by HTRF assay; format: protein-complex assay
Sequence of Programmed cell death protein 1/Programmed cell death 1 ligand 1 (Q15116 whole entry): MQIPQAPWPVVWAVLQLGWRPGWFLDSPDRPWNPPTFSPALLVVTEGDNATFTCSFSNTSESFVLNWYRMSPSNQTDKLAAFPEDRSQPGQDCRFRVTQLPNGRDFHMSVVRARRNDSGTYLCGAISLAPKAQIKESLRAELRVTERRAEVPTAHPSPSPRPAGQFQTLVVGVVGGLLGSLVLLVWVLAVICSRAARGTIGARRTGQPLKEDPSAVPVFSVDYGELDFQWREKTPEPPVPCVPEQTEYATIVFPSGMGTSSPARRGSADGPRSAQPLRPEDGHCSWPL
Sequence of Programmed cell death protein 1/Programmed cell death 1 ligand 1 (Q9NZQ7 whole entry): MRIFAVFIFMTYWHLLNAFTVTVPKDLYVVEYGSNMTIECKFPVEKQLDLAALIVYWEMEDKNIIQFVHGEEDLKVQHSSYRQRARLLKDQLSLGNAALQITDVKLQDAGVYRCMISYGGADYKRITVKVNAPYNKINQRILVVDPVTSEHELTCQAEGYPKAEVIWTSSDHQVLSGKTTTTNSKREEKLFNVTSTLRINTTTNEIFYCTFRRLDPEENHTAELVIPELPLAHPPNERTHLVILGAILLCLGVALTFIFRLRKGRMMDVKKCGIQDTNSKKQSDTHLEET

Sequence of Vascular endothelial growth factor receptor 2 (P35968 whole entry): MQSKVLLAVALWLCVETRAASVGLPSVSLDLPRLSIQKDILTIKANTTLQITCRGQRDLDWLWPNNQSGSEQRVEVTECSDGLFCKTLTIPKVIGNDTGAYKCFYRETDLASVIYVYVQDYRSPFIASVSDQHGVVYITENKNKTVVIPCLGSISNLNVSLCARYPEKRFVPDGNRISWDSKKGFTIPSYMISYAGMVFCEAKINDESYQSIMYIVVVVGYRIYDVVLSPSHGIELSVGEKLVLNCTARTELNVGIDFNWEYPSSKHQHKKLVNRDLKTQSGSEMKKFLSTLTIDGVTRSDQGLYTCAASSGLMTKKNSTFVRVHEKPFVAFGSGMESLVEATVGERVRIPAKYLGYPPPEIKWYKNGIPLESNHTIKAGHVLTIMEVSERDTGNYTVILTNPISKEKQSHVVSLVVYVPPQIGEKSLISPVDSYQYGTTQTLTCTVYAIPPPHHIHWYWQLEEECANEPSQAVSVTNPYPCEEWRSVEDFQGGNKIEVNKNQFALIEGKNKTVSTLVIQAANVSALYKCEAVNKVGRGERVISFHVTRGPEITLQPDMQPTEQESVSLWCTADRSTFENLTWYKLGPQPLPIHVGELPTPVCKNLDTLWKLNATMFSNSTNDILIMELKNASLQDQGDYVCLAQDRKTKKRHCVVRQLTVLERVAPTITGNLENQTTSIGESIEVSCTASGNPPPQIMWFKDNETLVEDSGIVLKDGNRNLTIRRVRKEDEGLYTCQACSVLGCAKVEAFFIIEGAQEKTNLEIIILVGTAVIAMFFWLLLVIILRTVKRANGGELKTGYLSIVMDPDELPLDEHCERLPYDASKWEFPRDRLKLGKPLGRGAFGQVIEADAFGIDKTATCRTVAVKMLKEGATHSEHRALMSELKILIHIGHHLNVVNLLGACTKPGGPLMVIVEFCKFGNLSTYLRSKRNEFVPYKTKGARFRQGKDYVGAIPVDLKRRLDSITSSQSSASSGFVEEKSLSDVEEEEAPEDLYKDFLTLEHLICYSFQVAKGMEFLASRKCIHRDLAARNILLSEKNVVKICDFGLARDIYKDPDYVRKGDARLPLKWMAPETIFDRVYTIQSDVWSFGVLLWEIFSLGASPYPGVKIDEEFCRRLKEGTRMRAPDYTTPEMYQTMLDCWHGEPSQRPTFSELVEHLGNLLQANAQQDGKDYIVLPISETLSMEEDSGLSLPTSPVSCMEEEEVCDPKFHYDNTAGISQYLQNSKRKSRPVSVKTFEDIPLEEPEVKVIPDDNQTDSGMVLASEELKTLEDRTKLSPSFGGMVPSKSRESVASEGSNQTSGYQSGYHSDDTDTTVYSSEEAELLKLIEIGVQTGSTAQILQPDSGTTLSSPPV

IC50 [1]: 0.96 µM
Structure (SMILES): O=C(Nc1cc(C(F)(F)F)ccc1N1CCCCC1)c1ccncc1

Structure (SMILES): CC(CCc1c[nH]c2ccccc12)N1C[C@H]2CC[C@@H](C1)C2N (some centres undefined)
IC50 [2]: 74.9 µM

IC50 (Splicing factor 45): 10.4 µM
Structure (SMILES): COc1cc2c(cc1OC)N(CCCN1CCN(CCO)CC1)c1cc(Cl)ccc1S2
IC50 [3]: 9.2 µM
